Converted amounts (≈) assume the structure as drawn. Where two headings read alike, the source gives them in different places. Marks after values point to notes of the source that are not given here.
Columns and labels:
Pseudomonas aeruginosa = experiment: Broth microdilution antibacterial assay; type: cell-based; conditions: for Selectivity index (CC50/IC50): MRC-5 CC50 / P. aeruginosa IC50; for IC50 / MIC: Pseudomonas aeruginosa; for IC50: average of two biological replicates ± S.D., read-out: IC50
Procedure: (§1) Antibacterial Assay Procedure
(§2) Broth Microdilution Assays
(§3) Media and solutions were autoclaved or sterile filtered prior to use and manipulations were carried out in a laminar flow hood. Antibacterial testing was performed in polypropylene 96 -well flat bottom plates. The minimal inhibitory concentration of blasticidin S ( 1) hydrochloride, P10 (2), and derivatives 15–22 were assessed against Staphylococcus aureus ΔNorA, S. aureus 8810, methicillin-resistant S. aureus (MRSA) ATCC 43300, Enterococcus faecalis ATCC 29212, vancomycin-resistant Enterococcus, Klebsiella pneumoniae ATCC 29665, Pseudomonas aeruginosa, and Acinetobacter baumannii ATCC 17978 using serial dilutions. Doxycycline (Gold Bio) as a positive control and the vehicle as a negative control. Stock solutions of each compound were prepared at 5.12 mg/mL in 50% DMSO/water and serially diluted in 50% DMSO/water to create master plates. From the master plates, 10 μL of each dilution was applied to test plates using a Bravo automated liquid transfer system (Agilent). Bacteria previously grown overnight (37 °C, 120 – 200 RPM), in LB broth were diluted to an OD600 of 0.0 5 in cation-adjusted Mueller-Hinton broth, grown to an OD600 of ~0.5, and diluted to an OD600 of 0.004 in cation-adjusted Mueller-Hinton broth. These diluted cultures were applied to the test plates (190 μL per test well) resulting in final concentrations of the test compounds of 256–2 μg/mL. Growth controls (wells with inoculated media but no vehicle or test compounds) were included to assess any potential toxicity from the vehicle. The plates were incubated at 37 °C for 16–18 h, except for VRE and E. faecalis, which were incubated at 37 °C for 24 h. Inhibition was determined by measuring the optical density at 600 nm (OD600) with a Cytation 3 plate reader (BioTek). The optical density measurements were normalized to the positive and negative controls and the vehicle and growth controls were compared and found to be indistinguishable, indicating no toxicity from the vehicle used. The MIC was the lowest concentration that inhibited >90% of growth. Two biological replicates were performed in duplicate. MIC values are reported […]
(§4) as a range from biological replicates. Inhibition curves were generated using Prism (GraphPad).
(§5) The IC50 values reported in Table 2 are the average of the two biological replicates ± standard […]
(§6) Cytotoxicity Assay Procedure
(§7) Human lung fibroblast cells, MRC -5 (CCL-171), were cultured at 37℃ with 5% CO2 and were plated at 5000 cells/well in a 96 -well plate. Compounds 1, 2, and 15-22 were initially prepared at concentrations of 5.12 mg/mL in a vehicle of 50% DMSO. Dilutions of the compounds (4 – 512 μg/mL) were then prepared in growth medium containing Dulbecco’s modified Eagle’s medium (DMEM) with high glucose, L -glutamine, and sodium pyruvate supplemented with 10% fetal bovine serum (FBS), 1% non -essential amino acids, and 0.1% gentamicin sulfate, and 25mM HEPES. The vehicle (50% DMSO) was also prepared via the sa me dilution series to serve as a control. Growth media was removed from the cells and replaced with the same volume of each compound dilution. Cells were incubated for 24 h , after which CellTiter 96® AQueous One Solution Reagent was added to each well as recommended by the manufacturer’s protocol (Promega CellTiter 96 AQueous One Solution Cell Proliferation Assay) and further incubated for 4 h. After incubation, absorbance was measured at 490 nm on an Infinite M plex multimode microplate reader with i -control Tecan software. Viability was calculated by subtracting media only absorbance values and normalizing to the vehicle control at each concentration. The presented data is one assay performed in triplicate that is representative of multiple trials. Data for the 256 and 512 μg/mL concentrations were removed from analysis due to vehicle toxicity […]
(§8) CC50 concentrations were determined via the ED50 Plus v1.0 software (https://archive.org/details/ed50v10_zip).

[1] = test system: Staphylococcus aureus ΔNorA; experiment: Broth microdilution antibacterial assay; type: cell-based; conditions: for Selectivity index (CC50/IC50): MRC-5 CC50 / S. aureus ΔNorA IC50; for IC50 / MIC: Staphylococcus aureus
Procedure: as §1, §2, §3, §4, §5, §6, §7, §8

[2] = test system: vancomycin-resistant Enterococcus (VRE); experiment: Broth microdilution antibacterial assay; type: cell-based; conditions: for MIC / IC50: Enterococcus, VRE; for IC50: average of two biological replicates ± S.D., read-out: IC50; for Selectivity index (CC50/IC50): MRC-5 CC50 / VRE IC50
Procedure: as §1, §2, §3, §4, §5, §6, §7, §8

[3] = test system: Enterococcus faecalis ATCC 29212; experiment: Broth microdilution antibacterial assay; type: cell-based; conditions: for MIC / IC50: Enterococcus faecalis, ATCC29212; for IC50: average of two biological replicates ± S.D. (18: one biological replicate), read-out: IC50; for Selectivity index (CC50/IC50): MRC-5 CC50 / E. faecalis IC50
Procedure: as §1, §2, §3, §4, §5, §6, §7, §8

[4] = test system: Acinetobacter baumannii ATCC 17978; experiment: Broth microdilution antibacterial assay; type: cell-based; conditions: for IC50 / MIC: Acinetobacter baumannii, ATCC17978; for IC50: average of two biological replicates ± S.D., read-out: IC50; for Selectivity index (CC50/IC50): MRC-5 CC50 / A. baumannii IC50
Procedure: as §1, §2, §3, §4, §5, §6, §7, §8

[5] = test system: Klebsiella pneumoniae ATCC 29665; experiment: Broth microdilution antibacterial assay; type: cell-based; conditions: for IC50 / MIC: Klebsiella pneumoniae, ATCC29665, K. pneumoniae; for IC50: average of two biological replicates ± S.D., read-out: IC50; for MIC: lowest concentration inhibiting >90% of growth, range from biological replicates, read-out: MIC; for Selectivity index (CC50/IC50): MRC-5 CC50 / K. pneumoniae IC50
Procedure: as §1, §2, §3, §4, §5, §6, §7, §8

[6] = test system: MRC-5 lung fibroblast cells; experiment: in vitro; type: cell-based, human; conditions: average of SI (CC50/IC50) over the bacteria tested
Procedure: as §4, §5, §6, §7, §8
(§9) Figure S41. The effect of compounds on cell viability. The lines represent non -linear regression curves, and error bars represent means ± […]
(§10) SD (n=3). […]

in vitro = type: cell-based, human; conditions: human; MRC-5 (lung fibroblast); 24 h; one biological replicate (n = 3); read-out: CC50 for human cells
Procedure: as §4, §5, §6, §7, §8, §9, §10

[7] = test system: methicillin-resistant S. aureus (MRSA) ATCC 43300; experiment: Broth microdilution antibacterial assay; type: cell-based, Staphylococcus aureus; conditions: for Selectivity index (CC50/IC50): MRC-5 CC50 / MRSA IC50; for IC50 / MIC: Staphylococcus aureus; for IC50: average of two biological replicates ± S.D., read-out: IC50
Procedure: as §1, §2, §3, §4, §5, §6, §7, §8

S. aureus 8810 = experiment: Broth microdilution antibacterial assay; type: cell-based, Staphylococcus aureus; conditions: for Selectivity index (CC50/IC50): MRC-5 CC50 / S. aureus IC50; for IC50 / MIC: Staphylococcus aureus, 8810; for IC50: average of two biological replicates ± S.D., read-out: IC50
Procedure: as §1, §2, §3, §4, §5, §6, §7, §8

[8] = average MIC, Table S3, read-out: Average Activity against VRE
[9] = 24 h, lowest concentration inhibiting >90% of growth, range from biological replicates, read-out: MIC
[10] = E. faecalis, 24 h, lowest concentration inhibiting >90% of growth, range from biological replicates, read-out: MIC
[11] = average MIC, Table S3, read-out: Average Activity against E. faecalis
[12] = A. baumannii, lowest concentration inhibiting >90% of growth, range from biological replicates, read-out: MIC
[13] = MRSA, lowest concentration inhibiting >90% of growth, range from biological replicates, read-out: MIC
[14] = average MIC, Table S3, read-out: Average Activity against MRSA
[15] = S. aureus, lowest concentration inhibiting >90% of growth, range from biological replicates, read-out: MIC
[16] = average MIC, Table S3, read-out: Average Activity against S. aureus

Row | Compound | Selectivity index (CC50/IC50) (Pseudomonas aeruginosa) | IC50 (Pseudomonas aeruginosa; P. aeruginosa) [µg/mL] | Selectivity index (CC50/IC50) [1] | IC50 [1] [µg/mL] | MIC [1] [µg/mL] | MIC [2, 8] [µg/mL] | IC50 [2] [µg/mL] | Selectivity index (CC50/IC50) [2] | MIC [3, 10] [µg/mL] | IC50 ([3]; E. faecalis) [µg/mL] | MIC [3, 11] [µg/mL] | Selectivity index (CC50/IC50) [3] | IC50 ([4]; A. baumannii) [µg/mL] | Selectivity index (CC50/IC50) [4] | IC50 [5] [µg/mL] | MIC [5] [µg/mL] | Selectivity index (CC50/IC50) [5] | CC50 at 24 h (in vitro) [µg/mL] | Selectivity index (CC50/IC50) [7] | IC50 ([7]; MRSA) [µg/mL] | also measured
1 | CN(CC[C@H](N)CC(=O)N[C@H]1C=C[C@H](n2ccc(N)nc2=O)O[C@@H]1C(N)=O)C(=N)N [Compound 2, P10] | 0.4 | 14.6 ± 1.5 (≈ 34.6 µM) | 0.4 | 14 ± 0.3 (≈ 33.2 µM) | 64 to 128 (≈ 152 to 304 µM) | 64 (≈ 152 µM) | 15 ± 8.6 (≈ 35.6 µM) | 0.4 | 16 to 32 (≈ 38 to 75.9 µM) | 5.1 ± 4.3 (≈ 12.1 µM) | 16 (≈ 38 µM) | 1.2 | 4.5 ± 0.4 (≈ 10.7 µM) | 1.3 | 7.6 ± 1.3 (≈ 18 µM) | 32 (≈ 75.9 µM) | 0.8 | 5.9 (≈ 14 µM) | 0.8 | 7 ± 1 (≈ 16.6 µM) | MIC (Pseudomonas aeruginosa; P. aeruginosa, lowest concentration inhibiting >90% of growth, range from biological replicates, read-out: MIC): 64 µg/mL (≈ 152 µM); MIC [2, 9]: 64 µg/mL (≈ 152 µM); MIC [4, 12]: 16 µg/mL (≈ 38 µM); average selectivity index [6]: 0.8; MIC [7, 13]: 32 µg/mL (≈ 75.9 µM); MIC [7, 14]: 32 µg/mL (≈ 75.9 µM); Selectivity index (CC50/IC50) (S. aureus 8810): 1.3; IC50 (S. aureus 8810; S. aureus): 4.7 ± 1 µg/mL (≈ 11.2 µM); MIC (S. aureus 8810; [15]): 32 µg/mL (≈ 75.9 µM); MIC (S. aureus 8810; [16]): 32 µg/mL (≈ 75.9 µM)
2 | CN(C)C(=O)[C@H]1O[C@@H](n2ccc(N)nc2=O)C=C[C@@H]1NC(=O)C[C@@H](N)CCN(C)C(=N)N [Compound 18] | 3.4 | 18.8 ± 2.6 (≈ 41.8 µM) | 3.5 | 18.3 ± 1.4 (≈ 40.7 µM) | 128 (≈ 285 µM) | 96 (≈ 214 µM) | 27.7 ± 11 (≈ 61.6 µM) | 2.3 | 16 to 32 (≈ 35.6 to 71.2 µM) | 17 (≈ 37.8 µM) | 32 (≈ 71.2 µM) | 3.7 ^b | 46.4 ± 7 (≈ 103 µM) | 1.4 | 60.1 ± 4.7 (≈ 134 µM) | 256 (≈ 570 µM) | 1.1 | 63.9 (≈ 142 µM) | 5.0 | 12.8 ± 1.9 (≈ 28.5 µM) | MIC (Pseudomonas aeruginosa): 64 to 128 µg/mL (≈ 142 to 285 µM); MIC ([2]; 24 h): 64 to 128 µg/mL (≈ 142 to 285 µM); MIC [4, 12]: 256 µg/mL (≈ 570 µM); MIC [7, 13]: 32 µg/mL (≈ 71.2 µM); MIC [7, 14]: 32 µg/mL (≈ 71.2 µM); Selectivity index (CC50/IC50) (S. aureus 8810): 9.1; IC50 (S. aureus 8810; S. aureus): 7 ± 1.5 µg/mL (≈ 15.6 µM); MIC (S. aureus 8810; [15]): 64 µg/mL (≈ 142 µM); MIC (S. aureus 8810; [16]): 64 µg/mL (≈ 142 µM)
3 | CCNC(=O)[C@H]1O[C@@H](n2ccc(N)nc2=O)C=C[C@@H]1NC(=O)C[C@@H](N)CCN(C)C(=N)N [Compound 16] | 6.3 | 21.8 ± 2.7 (≈ 48.5 µM) | 7.0 | 19.6 ± 1.8 (≈ 43.6 µM) | 128 (≈ 285 µM) | 64 (≈ 142 µM) | 20.2 ± 8.1 (≈ 44.9 µM) | 6.8 | 16 to 32 (≈ 35.6 to 71.2 µM) | 9.6 ± 4 (≈ 21.4 µM) | 16 (≈ 35.6 µM) | 14 | 35.7 ± 11 (≈ 79.4 µM) | 3.8 | 60.1 ± 6.2 (≈ 134 µM) | 256 (≈ 570 µM) | 2.3 | 137 (≈ 305 µM) | 9.2 | 14.9 ± 1.6 (≈ 33.1 µM) | MIC (Pseudomonas aeruginosa): 64 to 128 µg/mL (≈ 142 to 285 µM); MIC [2, 9]: 64 µg/mL (≈ 142 µM); MIC [4]: 128 µg/mL (≈ 285 µM); MIC [7, 13]: 32 µg/mL (≈ 71.2 µM); MIC [7, 14]: 32 µg/mL (≈ 71.2 µM); Selectivity index (CC50/IC50) (S. aureus 8810): 26; IC50 (S. aureus 8810; S. aureus): 5.3 ± 1.5 µg/mL (≈ 11.8 µM); MIC (S. aureus 8810; [15]): 32 µg/mL (≈ 71.2 µM); MIC (S. aureus 8810; [16]): 32 µg/mL (≈ 71.2 µM)
